Literature values in US3963579A, “Microbiological process for the production of pepstatins” (Sanraku-Ocean Co., Ltd., priority 1973, dated 1976).
Square brackets hold non-standard residues; d marks the D form. Peptide text beside a SMILES is read from it. * marks the point of attachment. Sta = CC(C)C[C@H](N)[C@@H](O)CC(=O)O; Isovaleryl = CC(C)CC(=O)*

Conditions: clinical, reported

SMILES: CC(C)CC(=O)N[C@H](C(=O)N[C@H](C(=O)N[C@@H](CC(C)C)[C@@H](O)CC(=O)N[C@@H](C)C(=O)N[C@@H](CC(C)C)[C@@H](O)CC(=O)O)C(C)C)C(C)C [pepstatin A] (Isovaleryl-VV[Sta]A[Sta]-OH)
- effect on gastric ulcers clinically: takes effect on gastric ulcers clinically
